The nature of assay [1]: Selectivity ratio for inhibition of Protein phosphatase 1 and Protein phosphatase 2A.
A short description of assay [2]: Inhibition of protein phosphatase 1 (PP1) was determined by standard phosphorylase a inhibition assay. Details: species or system Oryctolagus cuniculus.

We go through six compounds from ChEMBL document CHEMBL1145771 (Bioorg Med Chem Lett, 2003).

Broadly, the IC50 is the concentration that inhibits the measured activity by half. Low readings indicate greater potency, high ones weaker potency. `CO[C@@H]([C@H](O)CC(=O)[C@@H](C)[C@@H](O)CC[C@@H](C)[C@@H]1O[C@]2(CC[C@@H](C)[C@H](CC[C@H](C)C(C)=O)O2)CC[C@@H]1C)[C@H](OC(=O)CCCP(=O)(O)O)C(C)C`: the Selectivity ratio in assay [1] was 2. This compound also showed a half-inhibitory concentration (IC50) in assay [2] of 150 µM.
Taken in the same sequence, the figures for `CO[C@@H]([C@H](O)CC(=O)[C@@H](C)[C@@H](O)CC[C@@H](C)[C@@H]1O[C@]2(CC[C@@H](C)[C@H](CC[C@H](C)C(C)=O)O2)CC[C@@H]1C)[C@H](OC(=O)C[C@@H](O)/C=C(\C)C(=O)O)C(C)C` were 1.9 and 2.1 µM.
For the compound `CO[C@@H]([C@H](O)CC(=O)[C@@H](C)[C@@H](O)CC[C@@H](C)[C@@H]1O[C@]2(CC[C@@H](C)[C@H](CC[C@H](C)C(C)=O)O2)CC[C@@H]1C)[C@H](OC(=O)C[C@@](C)(O)C(=O)O)C(C)C`, the Selectivity ratio in assay [1] stood at 1.3. This compound had an IC50 in assay [2] of 80 µM.
`CO[C@H]([C@H](O)CC(=O)[C@@H](C)[C@@H](O)CC[C@@H](C)[C@@H]1O[C@]2(CC[C@@H](C)[C@H](CC[C@H](C)C(C)=O)O2)CC[C@@H]1C)[C@H](OC(=O)C[C@@H](O)C1=C(C)C(=O)OC1=O)C(C)C` [TAUTOMYCIN] yielded a 50% inhibitory concentration (IC50) in assay [2] of 1.9 µM.
Still for that read-out and setting: as for `CO[C@@H]([C@H](O)CC(=O)[C@@H](C)[C@@H](O)CC[C@@H](C)[C@@H]1O[C@]2(CC[C@@H](C)[C@H](CC[C@H](C)C(C)=O)O2)CC[C@@H]1C)[C@H](OC(=O)C[C@H](O)C1=C(C)C(=O)OC1=O)C(C)C`, the figure is 0.13 µM.
As to `CO[C@@H]([C@H](O)CC(=O)[C@@H](C)[C@@H](O)CC[C@@H](C)[C@@H]1O[C@]2(CC[C@@H](C)[C@H](CC[C@H](C)C(C)=O)O2)CC[C@@H]1C)[C@H](OC(=O)C[C@](C)(O)C(=O)O)C(C)C`, in assay [1], the Selectivity ratio worked out at 1.5. In assay [2], this compound had an IC50 of 19 µM.
